In ChEMBL document CHEMBL1201862, “PubChem BioAssay data set” (2004):
Activity calls are given as the source filed them.

How the values were obtained:
[1] = biological target: T1, Heat shock factor protein 1 (Mus musculus, UniProt P38532); assay: inhibition of MG132-induced HSE-luciferase signal, confirmation, cell-based, NIH3T3, luminescence, dose retest (AID 2382); type: functional;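 also: NIH3T3 fibroblasts with HSF1-driven luciferase reporter stressed by proteasome inhibitor MG132; luminescence from HSF1-driven luciferase expression after 8 hours of MG132 stress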
T1 sequence (P38532 whole entry): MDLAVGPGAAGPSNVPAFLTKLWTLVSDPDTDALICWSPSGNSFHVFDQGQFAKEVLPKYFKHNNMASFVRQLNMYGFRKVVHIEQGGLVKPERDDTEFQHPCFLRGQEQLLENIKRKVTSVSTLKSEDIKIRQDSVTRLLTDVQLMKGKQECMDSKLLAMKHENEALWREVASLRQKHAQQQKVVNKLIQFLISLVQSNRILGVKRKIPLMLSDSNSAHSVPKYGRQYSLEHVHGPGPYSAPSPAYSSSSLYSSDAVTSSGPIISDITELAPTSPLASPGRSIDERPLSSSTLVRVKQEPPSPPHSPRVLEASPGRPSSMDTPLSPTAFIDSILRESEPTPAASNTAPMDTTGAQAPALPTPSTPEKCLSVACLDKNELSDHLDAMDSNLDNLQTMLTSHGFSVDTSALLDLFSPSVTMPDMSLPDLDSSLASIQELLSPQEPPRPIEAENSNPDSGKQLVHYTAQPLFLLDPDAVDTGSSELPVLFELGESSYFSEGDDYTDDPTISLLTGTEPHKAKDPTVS

Galanin receptor type 3 = biological target: T2, Galanin receptor type 3 (Homo sapiens, UniProt O60755); assay: Fluorescence-based cell-based primary high throughput dose response assay to identify antagonists of the Galanin Receptor 3 (GalR3).; type: functional
T2 sequence (O60755 whole entry): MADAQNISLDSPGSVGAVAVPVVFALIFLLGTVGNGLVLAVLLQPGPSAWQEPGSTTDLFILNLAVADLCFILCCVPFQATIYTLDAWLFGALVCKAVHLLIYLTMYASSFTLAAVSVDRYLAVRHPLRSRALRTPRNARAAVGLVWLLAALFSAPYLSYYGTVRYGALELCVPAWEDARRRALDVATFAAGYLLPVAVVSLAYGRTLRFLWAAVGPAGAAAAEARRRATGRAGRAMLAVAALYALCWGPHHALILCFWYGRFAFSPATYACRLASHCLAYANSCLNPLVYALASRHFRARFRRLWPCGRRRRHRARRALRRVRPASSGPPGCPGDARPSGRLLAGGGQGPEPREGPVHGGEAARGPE

cells [2] = type: functional, cell-based; conditions: HEK-CNG
[3] = biological target: T3, Calpain-2 catalytic subunit (Sus scrofa, UniProt P43367); assay: pig calpain II inhibitor potency, dose response, biochemical, fluorogenic peptide substrate (AID 1420); type: functional
T3 sequence (P43367 whole entry): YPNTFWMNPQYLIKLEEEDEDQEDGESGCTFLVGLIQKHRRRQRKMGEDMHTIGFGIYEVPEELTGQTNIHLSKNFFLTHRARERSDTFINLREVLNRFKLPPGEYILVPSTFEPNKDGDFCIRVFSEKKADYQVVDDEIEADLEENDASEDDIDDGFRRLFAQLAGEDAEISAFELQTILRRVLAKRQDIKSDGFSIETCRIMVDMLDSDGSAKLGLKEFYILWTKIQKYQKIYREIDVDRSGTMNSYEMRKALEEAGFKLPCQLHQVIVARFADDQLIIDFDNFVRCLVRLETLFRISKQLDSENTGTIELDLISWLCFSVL

cells [4] = type: functional, cell-based
cells [5] = type: functional, cell-based; remark: listed apart in the source
[6] = Luminescence Cell-Based Dose Retest to Confirm Inhibitors of Cancer Stem Cells. [Related pubchem assays (depositor defined):AID2717, AID2721]; type: functional; conditions: Homo sapiens
[7] = biological target: T4, Ubiquitin-conjugating enzyme E2 N (Homo sapiens, UniProt P61088); type: functional;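 also: Dose-response confirmation in a TR-FRET assay detecting UBC13-driven polyubiquitin chain formation, inhibition measured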
T4 sequence (P61088 whole entry): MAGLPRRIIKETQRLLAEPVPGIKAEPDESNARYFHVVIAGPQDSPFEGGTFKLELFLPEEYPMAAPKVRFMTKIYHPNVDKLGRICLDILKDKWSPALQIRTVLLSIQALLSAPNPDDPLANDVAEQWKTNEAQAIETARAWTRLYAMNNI

Melanocortin receptor 4 = Melanocortin receptor 4 (Homo sapiens, UniProt P32245); type: functional, cell-based;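 also: Cell-based assay with luminescence read-out, confirmatory dose-response testing for agonist activity of biased ligands at MC4R; human U2OS cells with tagged receptor and beta-arrestin; potency of agonists that increase receptor coupling to beta-arrestin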
Chain of Melanocortin receptor 4 (P32245 whole entry): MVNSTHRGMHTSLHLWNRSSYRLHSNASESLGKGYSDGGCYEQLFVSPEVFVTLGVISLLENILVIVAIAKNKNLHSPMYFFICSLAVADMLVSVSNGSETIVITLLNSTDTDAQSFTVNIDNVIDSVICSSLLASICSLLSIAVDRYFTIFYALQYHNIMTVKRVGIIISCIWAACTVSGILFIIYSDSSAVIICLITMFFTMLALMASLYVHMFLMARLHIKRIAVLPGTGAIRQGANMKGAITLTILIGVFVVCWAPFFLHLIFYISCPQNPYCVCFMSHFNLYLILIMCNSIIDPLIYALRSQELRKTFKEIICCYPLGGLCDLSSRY

[8] = miR-122 activators in hepatoma reporter cells, dose response, cell-based, Huh7 psiCHECK-miR122, Renilla luciferase, cherry-picked (AID 651956); type: functional;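 also: huh7 hepatoma cells stably carrying a psiCHECK-2 miR-122 sensor plasmid; renilla luciferase signal reporting endogenous miR-122 activity after 48 h compound exposure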
[9] = biological target: T5, DNA repair protein RAD52 homolog (Homo sapiens, UniProt P43351); type: functional, biochemical
T5 sequence (P43351 whole entry): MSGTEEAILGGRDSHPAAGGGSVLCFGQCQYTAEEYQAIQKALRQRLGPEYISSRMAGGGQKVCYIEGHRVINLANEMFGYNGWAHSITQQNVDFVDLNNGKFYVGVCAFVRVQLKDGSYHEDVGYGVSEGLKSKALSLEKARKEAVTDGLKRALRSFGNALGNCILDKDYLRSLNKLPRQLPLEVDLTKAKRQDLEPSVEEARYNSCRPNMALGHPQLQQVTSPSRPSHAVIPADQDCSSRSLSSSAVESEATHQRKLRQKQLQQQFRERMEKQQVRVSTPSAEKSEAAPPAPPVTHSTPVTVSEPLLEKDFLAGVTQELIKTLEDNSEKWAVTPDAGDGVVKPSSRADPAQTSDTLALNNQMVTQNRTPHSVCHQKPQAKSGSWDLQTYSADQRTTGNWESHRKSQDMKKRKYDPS

[10] = HEK293T cytotoxicity, dose response, cytotoxicity control for miR-122 modulator project, cell-based, inhibitor set, cherry-pick, set 2 (AID 720697); type: functional
[11] = HEK293T cytotoxicity, dose response, cytotoxicity control for miR-122 modulator project, cell-based, activator set, cherry-pick (AID 720690); type: functional;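 also: HEK293T human cells scored for general mammalian cytotoxicity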

Question: For `N#Cc1c(N)nc2c3c(sc(=N)c2c1N)NC(=O)CC3c1ccccc1` (stereo unspecified), which EC50 [1] is on record?
Answer: > 195 µM (not active)

Question: What about the IC50 (Galanin receptor type 3) of the same compound?
Answer: > 29.9 µM (inactive)

Question: What about the EC50 (cells [2]) of the same compound?
Answer: > 29.9 µM (inactive)

Question: Which IC50 [3] does the source give for `O=C(NCCc1ccccc1)c1cnc2n(c1=O)CCS2` here?
Answer: 24.2 µM (not active)

Question: What about the IC50 (cells [4]) of the same compound?
Answer: > 29.9 µM (inactive)

Question: And the EC50 (cells [5])?
Answer: > 29.9 µM (inactive)

Question: With `CCCCCCOc1ccc(/C(C)=N/NC2=NCCN2)cc1` as the compound, how does the AC50 [6] read?
Answer: 3.05 µM (active)

Question: And the IC50 [7]?
Answer: > 20 µM (inactive)

Question: What about the EC50 (Melanocortin receptor 4) of the same compound?
Answer: > 89.1 µM (inactive)

Question: What about the AC50 [8] of the same compound?
Answer: 22.2 µM (active)

Question: What about the AC50 [9] of the same compound?
Answer: 23 µM (active)

Question: What about the AC50 [10] of the same compound?
Answer: 16 µM (active)

Question: What about the AC50 [11] of the same compound?
Answer: 16.3 µM (active)

Question: Which results are given for `C[C@@H]1CN([C@@H](C)CO)S(=O)(=O)c2ccc(-c3ccc(C(=O)N(C)C)cc3)cc2O[C@@H]1CN(C)C(=O)C1CCC1`?
Answer: AC50 [8]: 13.8 µM (active); AC50 [10]: 0.516 µM (active)

Question: For `COc1ccccc1-c1ccc2c(c1)O[C@@H](CN(C)S(=O)(=O)c1ccc(F)cc1)[C@@H](C)CN([C@@H](C)CO)S2(=O)=O`, which AC50 [11] is on record?
Answer: 42.4 µM (active)
